Laboratory results as given in patent US8461328B2, “Tricyclic heterocyclic compounds, compositions and methods of use thereof” (Genentech, Inc., priority 2010, dated 2013).

Columns and labels:
Format in all cases: biochemical
[1] = biological target: T1, JAK2 (Homo sapiens, UniProt O60674); test: JAK2 inhibition (Table 4); details: read-out: JAK2 Ki
T1 construct: made in house; host or cells: SF9 insect cells (baculovirus)

[2] = biological target: T2, JAK3 (Homo sapiens, UniProt P52333); test: JAK3 inhibition (Table 4); details: read-out: JAK3 Ki
T2 construct: made in house; host or cells: SF9 insect cells (baculovirus)
T2 sequence (P52333 783-1124): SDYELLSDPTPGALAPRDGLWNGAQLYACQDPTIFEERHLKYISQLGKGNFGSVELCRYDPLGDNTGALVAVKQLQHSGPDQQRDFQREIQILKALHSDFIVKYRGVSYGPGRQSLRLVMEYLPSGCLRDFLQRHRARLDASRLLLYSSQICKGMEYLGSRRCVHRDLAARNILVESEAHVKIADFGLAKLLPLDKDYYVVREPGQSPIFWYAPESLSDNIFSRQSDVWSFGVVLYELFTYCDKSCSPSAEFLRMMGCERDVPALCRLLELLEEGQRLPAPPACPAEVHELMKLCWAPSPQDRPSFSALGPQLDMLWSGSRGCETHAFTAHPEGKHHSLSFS

[3] = biological target: T3, JAK1 (Homo sapiens, UniProt P23458); test: JAK1 inhibition (Table 4); details: read-out: JAK1 Ki
T3 construct: made in house; host or cells: SF9 insect cells (baculovirus)
T3 sequence (P23458 852-1154): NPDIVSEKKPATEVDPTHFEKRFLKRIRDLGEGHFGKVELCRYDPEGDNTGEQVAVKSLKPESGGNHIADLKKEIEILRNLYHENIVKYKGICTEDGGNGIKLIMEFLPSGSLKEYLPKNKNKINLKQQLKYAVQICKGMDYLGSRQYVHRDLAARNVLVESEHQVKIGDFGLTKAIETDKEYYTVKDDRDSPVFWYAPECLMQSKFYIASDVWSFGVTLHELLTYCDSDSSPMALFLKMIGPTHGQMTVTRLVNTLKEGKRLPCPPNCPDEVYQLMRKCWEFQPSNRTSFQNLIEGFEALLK

[4] = biological target: T4, TYK2 (Homo sapiens, UniProt P29597); test: TYK2 inhibition (Table 4)
T4 construct: made in house; host or cells: SF9 insect cells (baculovirus)
T4 sequence (P29597 873-1187): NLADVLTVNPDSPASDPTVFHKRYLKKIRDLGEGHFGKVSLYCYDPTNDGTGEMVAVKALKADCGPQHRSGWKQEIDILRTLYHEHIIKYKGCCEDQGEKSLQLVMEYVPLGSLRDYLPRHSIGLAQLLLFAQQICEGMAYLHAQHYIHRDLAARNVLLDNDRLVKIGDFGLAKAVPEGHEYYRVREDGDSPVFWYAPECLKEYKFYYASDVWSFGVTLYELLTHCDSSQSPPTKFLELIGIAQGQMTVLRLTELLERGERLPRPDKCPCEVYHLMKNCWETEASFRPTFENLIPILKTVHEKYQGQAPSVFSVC

T1 sequence (O60674 812-1132): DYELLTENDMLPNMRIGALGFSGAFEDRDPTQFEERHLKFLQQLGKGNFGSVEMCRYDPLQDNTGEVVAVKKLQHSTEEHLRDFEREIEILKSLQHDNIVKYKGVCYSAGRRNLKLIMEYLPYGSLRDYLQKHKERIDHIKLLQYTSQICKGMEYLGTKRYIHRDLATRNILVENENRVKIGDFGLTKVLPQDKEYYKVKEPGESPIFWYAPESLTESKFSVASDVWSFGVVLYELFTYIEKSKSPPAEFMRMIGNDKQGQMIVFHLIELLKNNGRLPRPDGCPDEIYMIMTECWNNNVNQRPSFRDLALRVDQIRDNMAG

Structure (SMILES)	Ki [1]	Ki [2]	Ki [3]	Ki [4]
Cc1nn(C)c(C)c1CN1CCC(n2c([C@@H](C)O)nc3cnc4[nH]ccc4c32)CC1 [Example 831, (R)-1-{1-[1-(1,3,5-Trimethyl-1H-pyrazol-4-ylmethyl)-piperidin-4-yl]-1,6-dihydro-1,3,5,6-tetraaza-as-indacen-2-yl}-ethanol]	2680 nM	1000 nM	309 nM	–
CC(C)(O)Cc1nc2cnc3[nH]ccc3c2n1C1CCNCC1 [Example 173, 2-Methyl-1-(1-piperidin-4-yl-1,6-dihydro-1,2,3,5,6-tetraaza-as-indacen-2-yl)-propan-2-ol]	–	3900 nM	215 nM	–
CC(O)c1nc2cnc3[nH]ccc3c2n1C1CCCN(C(=O)C2CC(=O)N(C)C2)C1 (centres unmarked) [Example 787, 4-{3-[2-(1-Hydroxy-ethyl)-6H-1,3,5,6-tetraaza-as-indacen-1-yl]-piperidine-1-carbonyl}-1-methyl-pyrrolidin-2-one]	–	2490 nM	464 nM	–
CC(C)(C)OC(=O)N1CCC(n2c(NCCO)nc3cnc4[nH]ccc4c32)CC1 [Example 654, 4-[(2-Hydroxy-ethylamino)-6H-1,2,3,5,6-tetraaza-as-indacen-1-yl]-piperidine-1-carboxylic acid tert-butyl ester]	763 nM	2090 nM	453 nM	–
COCC(=O)NC1CCCC(n2cnc3cnc4[nH]ccc4c32)C1 (single isomer, unassigned) [Example 483, 2-Methoxy-N-[3-(6H-1,3,5,6-tetraaza-as-indacen-1-yl)-cyclohexyl]-acetamide]	832 nM	613 nM	472 nM	–
C[C@@H](O)c1nc2cnc3[nH]ccc3c2n1C1CCN(CC(=O)N2CCOCC2)CC1 [Example 870, 2-{4-[2-((R)-1-Hydroxy-ethyl)-6H-1,3,5,6-tetraaza-as-indacen-1-yl]-piperidin-1-yl}-1-morpholin-4-yl-ethanone]	1440 nM	1370 nM	267 nM	–
COC1CCC(C(=O)N2CCCC(n3c(C(C)O)nc4cnc5[nH]ccc5c43)C2)CC1 (centres unmarked) [Example 799, {3-[2-(1-Hydroxy-ethyl)-6H-1,3,5,6-tetraaza-as-indacen-1-yl]-piperidin-1-yl}-(4-methoxy-cyclohexyl)-methanone]	–	–	456 nM	–
CN1CCC(C(=O)N2CCC(n3cnc4cnc5[nH]ccc5c43)CC2)C1 (racemic) [Example 452, (1-Methyl-pyrrolidin-3-yl)-[4-(6H-1,3,5,6-tetraaza-as-indacen-1-yl)-piperidin-1-yl]-methanone]	1170 nM	–	316 nM	–
c1cc2c(ncc3nc(C4CCCN4)n(C4CCCOC4)c32)[nH]1 (single isomer, unassigned) [Example 666]	–	4010 nM	1690 nM	–
CC(=O)N1CCC(n2c(C(F)(F)CN)nc3cnc4[nH]ccc4c32)CC1 [Example 139, 1-{4-[2-(2-Amino-1,1-difluoro-ethyl)-6H-1,2,3,5,6-tetraaza-as-indacen-1-yl]-piperidin-1-yl}-ethanone]	930 nM	1450 nM	339 nM	–
Cc1nc2cnc3[nH]ccc3c2n1C(C)C1CCCO1 (single isomer, unassigned) [Example 427, 2-Methyl-1-[1-(tetrahydro-furan-2-yl)-ethyl]-1,6-dihydro-1,3,5,6-tetraaza-as-indacene]	167 nM	–	201 nM	–
CC(C)(C)OC(=O)N1CC(F)(F)C[C@H]1C(=O)N1CCC(n2cnc3cnc4[nH]ccc4c32)CC1 [Example 243, (S)-4,4-Difluoro-2-[4-(6H-1,3,5,6-tetraaza-as-indacen-1-yl)-piperidine-1-carbonyl]-pyrrolidine-1 carboxylic acid tert-butyl ester]	446 nM	–	357 nM	–
C[C@H](O)c1nc2cnc3[nH]ccc3c2n1[C@@H]1CCCN(C(=O)Cn2ccnc2)C1 [Example 781, 1-{(R)-3-[2-((S)-1-Hydroxy-ethyl)-6H-1,3,5,6-tetraaza-as-indacen-1-yl]-piperidin-1-yl}-2-imidazol-1-yl-ethanone]	1490 nM	4000 nM	380 nM	–
COCCC(=O)N1CCC[C@@H](n2c([C@@H](C)O)nc3cnc4[nH]ccc4c32)C1 [Example 784, 1-{(R)-3-[2-((R)-1-Hydroxy-ethyl)-6H-1,3,5,6-tetraaza-as-indacen-1-yl]-piperidin-1-yl}-3-methoxy-propan-1-one]	–	–	224 nM	–
CN1CCCC(C(=O)N2CCC(n3cnc4cnc5[nH]ccc5c43)CC2)C1 (single isomer, unassigned) [Example 454, (1-Methyl-piperidin-3-yl)-[4-(6H-1,3,5,6-tetraaza-as-indacen-1-yl)-piperidin-1-yl]-methanone]	1310 nM	–	547 nM	–
CC(C)N1CCCC[C@H]1C(=O)N1CCC(n2cnc3cnc4[nH]ccc4c32)CC1 [Example 950, ((S)-1-Isopropyl-piperidin-2-yl)-[4-(6H-1,3,5,6-tetraaza-as-indacen-1-yl)-piperidin-1-yl]-methanone]	1420 nM	–	255 nM	–
CC(O)c1nc2cnc3[nH]ccc3c2n1C1CCCN(C(=O)CC2CCCO2)C1 (centres unmarked) [Example 789, 1-{3-[2-(1-Hydroxy-ethyl)-6H-1,3,5,6-tetraaza-as-indacen-1-yl]-piperidin-1-yl}-2-(tetrahydro-furan-2-yl)-ethanone]	–	–	438 nM	–
CN1CCCC(C(=O)N2CCC(n3cnc4cnc5[nH]ccc5c43)CC2)C1 (single isomer, unassigned) [Example 453, (1-Methyl-piperidin-3-yl)-[4-(6H-1,3,5,6-tetraaza-as-indacen-1-yl)-piperidin-1-yl]-methanone]	1410 nM	–	263 nM	–
CN(C)CC(=O)N1CCC(n2cnc3cnc4[nH]ccc4c32)CC1 [Example 36, 2-Dimethylamino-1-[4-(6H-1,3,5,6-tetraaza-as-indacen-1-yl)-piperidin-1-yl]ethanone]	242 nM	1620 nM	–	1190 nM

The next lines start with the values.

Ki [1]	Ki [2]	Ki [3]	Ki [4]	Structure (SMILES)
1720 nM	1460 nM	73.9 nM	–	Cc1nc(CN2CCC(n3c([C@@H](C)O)nc4cnc5[nH]ccc5c43)CC2)n(C)c1C [Example 827, (R)-1-{1-[1-(1,4,5-Trimethyl-1H-imidazol-2-ylmethyl)-piperidin-4-yl]-1,6-dihydro-1,3,5,6-tetraaza-as-indacen-2-yl}-ethanol]
587 nM	784 nM	181 nM	–	c1cncc(-c2nc3cnc4[nH]ccc4c3n2C2CCNCC2)c1 [Example 153, 1-Piperidin-4-yl-2-pyridin-3-yl-1,6-dihydro-1,2,3,5,6-tetraaza-as-indacene]
628 nM	–	142 nM	–	COCCN1CCCC[C@H]1C(=O)N1CCC(n2cnc3cnc4[nH]ccc4c32)CC1 [Example 952, [(S)-1-(2-Methoxy-ethyl)-piperidin-2-yl]-[4-(6H-1,3,5,6-tetraaza-as-indacen-1-yl)-piperidin-1-yl]-methanone]
28.4 nM	9.24 nM	15.3 nM	–	c1ccc(CN2CCC(n3c(C4CCOCC4)nc4cnc5[nH]ccc5c43)CC2)cc1 [Example 154, 1-(1-Benzyl-piperidin-4-yl)-2-(tetrahydro-pyran-4-yl)-1,6-dihydro-1,2,3,5,6-tetraaza-as-indacene]
1210 nM	600 nM	24.5 nM	–	CC(C)n1cc(CN2CCC(n3c([C@@H](C)O)nc4cnc5[nH]ccc5c43)CC2)cn1 [Example 824, (R)-1-{1-[1-(1-Isopropyl-1H-pyrazol-4-ylmethyl)-piperidin-4-yl]-1,6-dihydro-1,3,5,6-tetraaza-as-indacen-2-yl}-ethanol]
898 nM	1840 nM	179 nM	–	c1cc(N2CCC[C@@H](n3cnc4cnc5[nH]ccc5c43)C2)ccn1 [Example 13, (R)-1-(3,4,5,6-Tetrahydro-2H-[1,4]bipyridinyl-3-yl)-1,6-dihydro-1,2,3,5,6-tetraaza-as-indacene]
983 nM	998 nM	164 nM	–	C[C@@H](O)c1nc2cnc3[nH]ccc3c2n1C1CCN(CC(=O)N2CCCC2)CC1 [Example 872, 2-{4-[2-((R)-1-Hydroxy-ethyl)-6H-1,3,5,6-tetraaza-as-indacen-1-yl]-piperidin-1-yl}-1-pyrrolidin-1-yl-ethanone]
1750 nM	1630 nM	159 nM	–	C[C@@H](O)c1nc2cnc3[nH]ccc3c2n1[C@@H]1CCCN(C(=O)CCn2ccnc2)C1 [Example 797, 1-{(R)-3-[2-((R)-1-Hydroxy-ethyl)-6H-1,3,5,6-tetraaza-as-indacen-1-yl]-piperidin-1-yl}-3-imidazol-1-yl-propan-1-one]
1730 nM	711 nM	109 nM	–	Cc1ncc(CN2CCC(n3c([C@@H](C)O)nc4cnc5[nH]ccc5c43)CC2)n1C [Example 830, (R)-1-{1-[1-(2,3-Dimethyl-3H-imidazol-4-ylmethyl)-piperidin-4-yl]-1,6-dihydro-1,3,5,6-tetraaza-as-indacen-2-yl}-ethanol]
1280 nM	668 nM	29.1 nM	–	COCCNc1nc2cnc3[nH]ccc3c2n1C1CCNCC1 [Example 657, (2-Methoxy-ethyl)-(1-piperidin-4-yl-1,6-dihydro-1,2,3,5,6-tetraaza-as-indacen-2-yl)-amine]
939 nM	1320 nM	94.3 nM	–	CCn1cc(CN2CCC(n3c([C@@H](C)O)nc4cnc5[nH]ccc5c43)CC2)c(C)n1 [Example 829, (R)-1-{1-[1-(1-Ethyl-3-methyl-1H-pyrazol-4-ylmethyl)-piperidin-4-yl]-1,6-dihydro-1,3,5,6-tetraaza-as-indacen-2-yl}-ethanol]
